In test [1] the target is T1, PARP-1 (Homo sapiens, UniProt P09874).
T1 construct: purchased Trevigen 4668-500-01
In words: PARP-1 SPA assay. The test is classed as biochemical. The protocol: Assay buffer: 100 mM Tris pH 8, 4 mM MgCl2, 4 mM Spermine, 200 mM KCl, 0.04% Nonidet P-40.
Nicotinamide-adenine dinucleotide (NAD)/DNA Mix: [^3H-NAD] (250 uCi/ml, 0.4 ul, Perkin-Elmer NET-443H), NAD (1.5 mM, 0.05 ul, SIGMA N-1511), Biotinylated-NAD (250 uM, 0.03 ul, Trevigen 4670-500-01), Activated calf thymus (1 mg/ml, 0.05 ul, Amersham Biosciences 27-4575), H2O (to 10 ul).
Developing Mix: Streptavidin SPA beads (5 mg/ml, Amersham Biosciences RPNQ 0007) dissolved in 500 mM EDTA.
The reaction is performed in 96-well microplate with a final volume of 50 uL/well. Add 5 ul 5% DMSO/compound solution, add enzyme mix (35 ul), start the reaction by adding NAD/DNA mix (10 uL) and incubate for 2 hrs at RT. Stop the reaction by adding developing mix (25 ul) and incubate 15 min at RT. Measure using a Packard TOP COUNT instrument.

Test [2] relates to BRCA-1 silenced HeLa cells (HeLa shBRCA1-GFP). In words: Proliferation assay in BRCA-1 silenced HeLa cells. The format is cell-based. Particulars: Homo sapiens; BRCA1 silenced HeLa cells, 168 hours; read-out: CC50 in the BRCA1 silenced HeLa cells. An outline of the steps:
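HeLa cells with lentiviral shRNA BRCA1 knockdown (>80%), compared with control-vector HeLa, seeded at 300 cells/well. Compound exposure lasted 168 h at 37° C. Viability was read as resazurin-to-resorufin fluorescence (ex 550/em 590 nm).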

Drawing on patent US8268827B2, “Pyridazinone derivatives as PARP inhibitors” (Istituto di Ricerche di Biologia Molecolare P. Angeletti …, priority 2007, dated 2012), this text covers IC50 and CC50 for 21 compounds.

The term IC50 denotes the concentration needed to halve the response being measured. A low value points to greater potency in that assay. In general, CC50 refers to the concentration giving 50% cytotoxicity.

Where a name gives a salt, the structure may show the parent alone.

T1 sequence (P09874 whole entry): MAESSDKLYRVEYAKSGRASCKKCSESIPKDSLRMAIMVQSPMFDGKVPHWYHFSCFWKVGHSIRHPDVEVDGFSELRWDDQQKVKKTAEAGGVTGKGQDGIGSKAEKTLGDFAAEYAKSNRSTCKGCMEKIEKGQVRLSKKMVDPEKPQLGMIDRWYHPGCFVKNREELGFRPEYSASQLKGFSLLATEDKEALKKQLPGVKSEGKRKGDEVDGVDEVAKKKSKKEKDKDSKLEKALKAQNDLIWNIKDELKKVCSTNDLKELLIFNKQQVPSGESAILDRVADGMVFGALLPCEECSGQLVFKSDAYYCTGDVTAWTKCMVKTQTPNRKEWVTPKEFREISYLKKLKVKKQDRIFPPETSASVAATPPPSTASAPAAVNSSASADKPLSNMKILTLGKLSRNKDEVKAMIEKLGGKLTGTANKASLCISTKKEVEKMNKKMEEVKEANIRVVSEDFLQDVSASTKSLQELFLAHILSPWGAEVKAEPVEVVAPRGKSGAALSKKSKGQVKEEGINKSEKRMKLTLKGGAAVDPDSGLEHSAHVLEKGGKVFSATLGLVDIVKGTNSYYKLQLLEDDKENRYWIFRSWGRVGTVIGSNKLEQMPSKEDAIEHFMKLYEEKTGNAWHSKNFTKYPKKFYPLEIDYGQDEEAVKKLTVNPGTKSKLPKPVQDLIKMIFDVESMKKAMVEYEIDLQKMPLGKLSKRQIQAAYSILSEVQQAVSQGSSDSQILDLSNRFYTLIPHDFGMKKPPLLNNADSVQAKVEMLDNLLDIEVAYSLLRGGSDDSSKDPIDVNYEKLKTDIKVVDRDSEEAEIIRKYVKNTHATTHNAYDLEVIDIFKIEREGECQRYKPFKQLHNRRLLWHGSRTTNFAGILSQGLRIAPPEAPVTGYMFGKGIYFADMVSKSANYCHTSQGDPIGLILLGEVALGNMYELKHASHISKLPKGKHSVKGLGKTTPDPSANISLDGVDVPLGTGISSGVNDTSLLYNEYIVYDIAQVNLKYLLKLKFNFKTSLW

For the compound `Cc1c(Cc2ccc(F)c(C(=O)N3CC(=O)N(c4ccccc4)C(C)C3)c2)n[nH]c(=O)c1C` (racemic) [Example 78 (LL4), 3-[4-Fluoro-3-(3-methyl-5-oxo-4-phenyl-piperazine-1-carbonyl)-benzyl]-4,5-dimethyl-6-oxo-1,6-dihydro-pyridazin-1-ium trifluoroacetate], the IC50 in test [1] is under 0.005 µM. Moreover, the CC50 in test [2] was under 0.05 µM.

`Cc1c(Cc2ccc(F)c(C(=O)N3CC(=O)N(c4ccc(F)cc4)C(C)C3)c2)n[nH]c(=O)c1C` (racemic) [Example 79, 3-{4-Fluoro-3-[4-(4-fluoro-phenyl)-3-methyl-5-oxo-piperazine-1-carbonyl]-benzyl}-4,5-dimethyl-6-oxo-1,6-dihydro-pyridazin-1-ium trifluoroacetate] gave an IC50 in test [1] of under 0.005 µM. Moreover, in test [2], the CC50 was under 0.05 µM.

Turning to `C[C@@H]1CCC[C@H]2CN(C(=O)c3cc(Cc4cc(C(F)(F)F)c(=O)[nH]n4)ccc3F)CC(=O)N21` (racemic) [Example 87, 6-{4-Fluoro-3-[(cis-6-methyl-4-oxooctahydro-2H-pyrido[1,2-a]pyrazin-2-yl)carbonyl]benzyl}-3-oxo-4-(trifluoromethyl)-2,3-dihydropyridazin-1-ium trifluoroacetate], the IC50 in test [1] is 0.005 to 0.025 µM. Further, the CC50 in test [2] was under 0.05 µM.

`O=C(c1cc(Cc2cc(C(F)(F)F)c(=O)[nH]n2)ccc1F)N1CC(=O)N2CCCCC2C1` (racemic) [Example 91, 2-(2-Fluoro-5-{[6-oxo-5-(trifluoromethyl)-1,6-dihydropyridazin-3-yl]methyl}benzoyl)octahydro-4H-pyrido[1,2-a]pyrazin-4-one] registered an IC50 in test [1] of 0.005 to 0.025 µM. Also, the CC50 in test [2] was in the range of 0.05 to 0.5 µM.

Consider `Cc1c(Cc2ccc(F)c(C(=O)N3CCN([C@H]4CC[C@@H](F)C4)C(=O)C3)c2)n[nH]c(=O)c1C` (relative stereo) [Example 80, cis-3-{4-Fluoro-3-[4-(3-fluoro-cyclopentyl)-3-oxo-piperazine-1-carbonyl]-benzyl}-4,5-dimethyl-6-oxo-1,6-dihydro-pyridazin-1-ium trifluoroacetate], for which, in test [1], the IC50 was under 0.005 µM. Further, the CC50 in test [2] fell in the range of 0.05 to 0.5 µM.

`Cc1c(Cc2ccc(F)c(C(=O)N3CCN([C@H]4CC[C@H](F)C4)C(=O)C3)c2)n[nH]c(=O)c1C` (relative stereo) [Example 212, 6-[4-Fluoro-3-({4-[(trans)-3-fluorocyclopentyl]-3-oxopiperazin-1-yl}carbonyl)benzyl]-4,5-dimethylpyridazin-3(2H)-one] returned an IC50 in test [1] of 0.005 to 0.025 µM.

In test [1], `Cc1c(Cc2ccc(F)c(C(=O)N3CC(=O)N(c4ccccc4)[C@@H](C)C3)c2)n[nH]c(=O)c1C` (single isomer, unassigned) [78 (LL4A)] returned a 50% inhibitory concentration (IC50) of 0.005 to 0.025 µM. For the same compound, in test [2], the CC50 fell in the range of 0.05 to 0.5 µM.

Turning to `O=C(c1cc(Cc2cc(C(F)(F)F)c(=O)[nH]n2)ccc1F)N1CC(=O)N2CCCC[C@H]2C1` (single isomer, unassigned) [92 (ZZ1)], the IC50 in test [1] is under 0.005 µM. In addition, in test [2], the CC50 is under 5 µM.

The compound `O=C(c1cc(Cc2cc(C(F)(F)F)c(=O)[nH]n2)ccc1F)N1CC(=O)N2CCCC[C@@H]2C1` (single isomer, unassigned) [92 (ZZ2)] returned an IC50 in test [1] of 0.005 to 0.025 µM. In addition, the CC50 in test [2] lay in the range of 0.05 to 0.5 µM.

As to `Cc1c(Cc2ccc(F)c(C(=O)N3CC(=O)N(c4ccccc4)[C@H](C)C3)c2)n[nH]c(=O)c1C` (single isomer, unassigned) [Example 78 (LL4B)], the IC50 in test [1] is under 0.005 µM. Also, the CC50 in test [2] is under 0.05 µM.

In the case of `Cc1c(Cc2ccc(F)c(C(=O)N3CCN(C)C(=O)C3)c2)n[nH]c(=O)c1C` [Example 7, 3-{4-Fluoro-3-[(4-methyl-3-oxopiperazin-1-yl)carbonyl]benzyl}-4,5-dimethyl-6-oxo-1,6-dihydropyridazin-1-ium trifluoroacetate], the IC50 in test [1] fell in the range of 0.005 to 0.025 µM.

`COC(=O)CN1CCN(C(=O)c2cc(Cc3n[nH]c(=O)c(C)c3C)ccc2F)CC1=O` [Example 24, Methyl (4-{5-[(4,5-dimethyl-6-oxo-1,6-dihydropyridazin-3-yl)methyl]-2-fluorobenzoyl}-2-oxopiperazin-1-yl)acetate trifluoroacetate] had an IC50 in test [1] of 0.005 to 0.025 µM.

On to `Cc1c(Cc2ccc(F)c(C(=O)N3CCCN(C4CCCCC4)C(=O)C3)c2)n[nH]c(=O)c1C` [Example 34, 6-{3-[(4-Cyclohexyl-3-oxo-1,4-diazepan-1-yl)carbonyl]-4-fluorobenzyl}-4,5-dimethyl-3-oxo-2,3-dihydropyridazin-1-ium trifluoroacetate], for which the IC50 in test [1] was in the range of 0.005 to 0.025 µM.

Compound `Cc1c(Cc2ccc(F)c(C(=O)N3CCN(C4CCCCC4)C(=O)C3(C)C)c2)n[nH]c(=O)c1C` [Example 37, 3-{3-[(4-Cyclohexyl-2,2-dimethyl-3-oxopiperazin-1-yl)carbonyl]-4-fluorobenzyl}-4,5-dimethyl-6-oxo-1,6-dihydropyridazin-1-ium trifluoroacetate] came in with an IC50 in test [1] of 0.025 to 0.15 µM.

`Cc1c(Cc2ccc(F)c(C(=O)N3C[C@@H]4C[C@H]3C(=O)N4c3ccccc3)c2)n[nH]c(=O)c1C` [Example 41, (1S,4S)-5-{5-[(4,5-Dimethyl-6-oxo-1,6-dihydropyridazin-3-yl)methyl]-2-fluorobenzoyl}-2-phenyl-2,5-diazabicyclo[2.2.1]heptan-3-one trifluoroacetate] had an IC50 in test [1] of 0.025 to 0.15 µM.

Consider `Cc1c(Cc2ccc(F)c(C(=O)N3CCN(CCF)C(=O)C3)c2)n[nH]c(=O)c1C` [Example 58, 6-(4-Fluoro-3-{[4-(2-fluoroethyl)-3-oxopiperazin-1-yl]carbonyl}benzyl)-4,5-dimethyl-3-oxo-2,3-dihydropyridazin-1-ium trifluoroacetate], for which the IC50 in test [1] is 0.005 to 0.025 µM.

The compound `Cc1c(Cc2ccc(F)c(C(=O)N3CCCN(C4CC4)C(=O)C3)c2)n[nH]c(=O)c1C` [Example 82, 1-Cyclopropyl-4-{5-[(4,5-dimethyl-6-oxo-1,6-dihydropyridazin-3-yl)methyl]-2-fluorobenzoyl}-1,4-diazepan-2-one] gave an IC50 in test [1] of 0.025 to 0.15 µM.

As to `Cc1c(Cc2ccc(F)c(C(=O)N3CC(=O)N(C4CCCCC4)CC3(C)C)c2)n[nH]c(=O)c1C` [Example 93, 3-{3-[(4-Cyclohexyl-2,2-dimethyl-5-oxopiperazin-1-yl)carbonyl]-4-fluorobenzyl}-4,5-dimethyl-6-oxo-1,6-dihydropyridazin-1-ium trifluoroacetate], the IC50 in test [1] fell in the range of 0.025 to 0.15 µM.

As for `CCN1CCN(C(=O)c2cc(Cc3n[nH]c(=O)c(C(F)(F)F)c3C)ccc2F)CC1=O` [Example 143, 6-{3-[(4-Ethyl-3-oxopiperazin-1-yl)carbonyl]-4-fluorobenzyl}-5-methyl-4-(trifluoromethyl)pyridazin-3(2H)-one], in test [1], the IC50 is 0.005 to 0.025 µM.

For the compound `Cc1c(Cc2ccc(F)c(C(=O)N3CC(=O)N(c4ccc(Cl)c(F)c4)[C@@H](C)C3)c2)n[nH]c(=O)c1C` [Example 208, 6-(3-{[(3S)-4-(4-Chloro-3-fluorophenyl)-3-methyl-5-oxopiperazin-1-yl]carbonyl}-4-fluorobenzyl)-4,5-dimethylpyridazin-3(2H)-one], in test [2], the CC50 is under 0.05 µM.

Take `Cc1c(Cc2ccc(F)c(C(=O)N3CC(=O)N(C4CC(F)(F)C4)[C@@H](C)C3)c2)n[nH]c(=O)c1C` [Example 209, 6-(3-{[(3S)-4-(3,3-Difluorocyclobutyl)-3-methyl-5-oxopiperazin-1-yl]carbonyl}-4-fluorobenzyl)-4,5-dimethylpyridazin-3(2H)-one]: the CC50 in test [2] is under 0.05 µM.
